# Source: US9187472B2 (AbbVie Inc., priority 2012, dated 2015)
# Columns and labels:
# [1] = tested on: PC3 cells; assay: NAMPT Cell Proliferation Assay; format: cell-based; settings: Homo sapiens, PC-3, 120 h, 5 days incubation, cell viability by Cell Titer Glo
# Summary of the method: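 Following overnight attachment in RPMI with 10% heat-inactivated FBS, PC3 cells at 500 per well receive compounds spanning 10 μM down to 1×10^−5 μM. Growth is assessed by luminescent viability read after 5 days.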
# [2] = biological target: NAMPT (Homo sapiens, UniProt P43490); assay: TR-FRET Binding Assay of NAMPT with PRPP; settings: with 200 μM PRPP and 2.5 mM ATP; 2 nM NAMPT, 2 nM probe, 16 hours equilibration
# Summary of the method: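 TR-FRET probe-displacement binding with 2 nM NAMPT, 2 nM probe and 1 nM Tb-anti-His antibody, run in the presence of 200 μM PRPP and 2.5 mM ATP at 2% DMSO. Equilibrated 16 hours before reading so test compounds could undergo enzymatic modification.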
# [3] = biological target: NAMPT (human, recombinant, C-terminally His-tagged) (Homo sapiens, UniProt P43490); assay: Time-Resolved Fluorescence Resonance Energy Transfer (TR-FRET) Binding Assay of NAMPT; settings: without substrates; 6.8 nM NAMPT, 200 nM probe, 3 hours equilibration
# Summary of the method: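 11-pt half-log compound series; final 6.8 nM NAMPT, 200 nM OG488 nicotinamide-competitive probe, 1 nM Tb-anti-His Ab, 2% DMSO, HEPES pH 7.5/NaCl/MgCl2/DTT/glycerol buffer. 3 h RT equilibration. Em520/Em495 ratio (Ex 337 nm), control-normalized, 4-parameter fit → IC50.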
# NAMPT, sequence (P43490 whole entry): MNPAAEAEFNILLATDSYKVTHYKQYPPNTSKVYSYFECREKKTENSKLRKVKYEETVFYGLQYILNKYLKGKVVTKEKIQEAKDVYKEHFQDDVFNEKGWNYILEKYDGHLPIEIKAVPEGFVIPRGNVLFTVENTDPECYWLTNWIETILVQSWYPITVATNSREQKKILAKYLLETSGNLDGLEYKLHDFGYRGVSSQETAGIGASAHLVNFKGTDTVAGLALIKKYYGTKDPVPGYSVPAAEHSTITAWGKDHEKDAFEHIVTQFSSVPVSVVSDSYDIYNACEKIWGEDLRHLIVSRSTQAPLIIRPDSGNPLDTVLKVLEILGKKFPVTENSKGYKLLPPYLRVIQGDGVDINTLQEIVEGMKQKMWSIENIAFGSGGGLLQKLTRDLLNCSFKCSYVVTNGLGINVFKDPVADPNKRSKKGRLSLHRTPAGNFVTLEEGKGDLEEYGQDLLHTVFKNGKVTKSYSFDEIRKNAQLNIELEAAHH
# NAMPT (human, recombinant, C-terminally His-tagged), sequence (P43490 whole entry): as above
IC50 [1],IC50 [2],IC50 [3],SMILES
18 nM,0.407 nM,245 nM,"O=C(NCc1ccn2ccnc2c1)c1ccc(C2CCN(C(=O)c3ccc(F)cc3F)CC2)cc1 [Example 506, 4-[1-(2,4-difluorobenzoyl)piperidin-4-yl]-N-(imidazo[1,2-a]pyridin-7-ylmethyl)benzamide]"
3.2 nM,0.359 nM,121 nM,"Cc1ccccc1C(=O)N1CCC(c2ccc(C(=O)NCc3ccn4ccnc4c3)cc2)CC1 [Example 507, N-(imidazo[1,2-a]pyridin-7-ylmethyl)-4-[1-(2-methylbenzoyl)piperidin-4-yl]benzamide]"
28.6 nM,0.481 nM,257 nM,"O=C(NCc1ccn2ccnc2c1)c1ccc(C2CCN(C(=O)c3ccc(F)cc3)CC2)cc1 [Example 508, 4-[1-(4-fluorobenzoyl)piperidin-4-yl]-N-(imidazo[1,2-a]pyridin-7-ylmethyl)benzamide]"
7.47 nM,0.384 nM,163 nM,"CC(C)(C)C(=O)N1CCC(c2ccc(C(=O)NCc3ccn4ccnc4c3)cc2)CC1 [Example 509, 4-[1-(2,2-dimethylpropanoyl)piperidin-4-yl]-N-(imidazo[1,2-a]pyridin-7-ylmethyl)benzamide]"
12.1 nM,0.284 nM,142 nM,"CC/C=C(\C)C(=O)N1CCC(c2ccc(C(=O)NCc3ccn4ccnc4c3)cc2)CC1 [Example 510, N-(imidazo[1,2-a]pyridin-7-ylmethyl)-4-{1-[(2E)-2-methylpent-2-enoyl]piperidin-4-yl}benzamide]"
2.78 nM,0.286 nM,65.3 nM,"Cn1nccc1C(=O)N1CCC(c2ccc(C(=O)NCc3ccn4ccnc4c3)cc2)CC1 [Example 511, N-(imidazo[1,2-a]pyridin-7-ylmethyl)-4-{1-[(1-methyl-1H-pyrazol-5-yl)carbonyl]piperidin-4-yl}benzamide]"
17.9 nM,0.209 nM,631 nM,"CC1(C(=O)N2CCC(c3ccc(C(=O)NCc4ccn5ccnc5c4)cc3)CC2)COC1 [Example 512, N-(imidazo[1,2-a]pyridin-7-ylmethyl)-4-{1-[(3-methyloxetan-3-yl)carbonyl]piperidin-4-yl}benzamide]"
1.18 nM,0.188 nM,23.9 nM,"O=C(NCc1ccn2ccnc2c1)c1ccc(C2CCN(C(=O)c3ccccc3F)CC2)cc1 [Example 513, 4-[1-(2-fluorobenzoyl)piperidin-4-yl]-N-(imidazo[1,2-a]pyridin-7-ylmethyl)benzamide]"
30.8 nM,0.249 nM,368 nM,"N#CC1(C(=O)N2CCC(c3ccc(C(=O)NCc4ccn5ccnc5c4)cc3)CC2)CC1 [Example 514, 4-{1-[(1-cyanocyclopropyl)carbonyl]piperidin-4-yl}-N-(imidazo[1,2-a]pyridin-7-ylmethyl)benzamide]"
15.8 nM,0.268 nM,180 nM,"O=C(NCc1ccn2ccnc2c1)c1ccc(C2CCN(C(=O)C3CCCC3)CC2)cc1 [Example 515, 4-[1-(cyclopentylcarbonyl)piperidin-4-yl]-N-(imidazo[1,2-a]pyridin-7-ylmethyl)benzamide]"
21.3 nM,0.266 nM,117 nM,"O=C(NCc1ccn2ccnc2c1)c1ccc(C2CCN(C(=O)c3cccc(F)c3)CC2)cc1 [Example 516, 4-[1-(3-fluorobenzoyl)piperidin-4-yl]-N-(imidazo[1,2-a]pyridin-7-ylmethyl)benzamide]"
72.2 nM,0.264 nM,330 nM,"Cn1cc(C(=O)N2CCC(c3ccc(C(=O)NCc4ccn5ccnc5c4)cc3)CC2)cn1 [Example 517, N-(imidazo[1,2-a]pyridin-7-ylmethyl)-4-{1-[(1-methyl-1H-pyrazol-4-yl)carbonyl]piperidin-4-yl}benzamide]"
34.8 nM,0.169 nM,234 nM,"CCC(=O)C(=O)N1CCC(c2ccc(C(=O)NCc3ccn4ccnc4c3)cc2)CC1 [Example 518, N-(imidazo[1,2-a]pyridin-7-ylmethyl)-4-[1-(2-oxobutanoyl)piperidin-4-yl]benzamide]"
60.9 nM,0.338 nM,218 nM,"Cc1cc(C(=O)N2CCC(c3ccc(C(=O)NCc4ccn5ccnc5c4)cc3)CC2)c(C)o1 [Example 519, 4-{1-[(2,5-dimethylfuran-3-yl)carbonyl]piperidin-4-yl}-N-(imidazo[1,2-a]pyridin-7-ylmethyl)benzamide]"
101 nM,0.301 nM,565 nM,"N#Cc1ccc(C(=O)N2CCC(c3ccc(C(=O)NCc4ccn5ccnc5c4)cc3)CC2)cc1 [Example 520, 4-[1-(4-cyanobenzoyl)piperidin-4-yl]-N-(imidazo[1,2-a]pyridin-7-ylmethyl)benzamide]"
93.5 nM,0.292 nM,413 nM,"N#Cc1cccc(C(=O)N2CCC(c3ccc(C(=O)NCc4ccn5ccnc5c4)cc3)CC2)c1 [Example 521, 4-[1-(3-cyanobenzoyl)piperidin-4-yl]-N-(imidazo[1,2-a]pyridin-7-ylmethyl)benzamide]"
6.73 nM,0.199 nM,58.1 nM,"O=C(NCc1ccn2ccnc2c1)c1ccc(C2CCN(C(=O)c3cc(F)ccc3F)CC2)cc1 [Example 522, 4-[1-(2,5-difluorobenzoyl)piperidin-4-yl]-N-(imidazo[1,2-a]pyridin-7-ylmethyl)benzamide]"
17.1 nM,0.422 nM,343 nM,"O=C(NCc1ccn2ccnc2c1)c1ccc(C2CCN(C(=O)c3cnccn3)CC2)cc1 [Example 523, N-(imidazo[1,2-a]pyridin-7-ylmethyl)-4-[1-(pyrazin-2-ylcarbonyl)piperidin-4-yl]benzamide]"
2.46 nM,0.169 nM,24.7 nM,"Cc1ccsc1C(=O)N1CCC(c2ccc(C(=O)NCc3ccn4ccnc4c3)cc2)CC1 [Example 524, N-(imidazo[1,2-a]pyridin-7-ylmethyl)-4-{1-[(3-methylthiophen-2-yl)carbonyl]piperidin-4-yl}benzamide]"
6.77 nM,0.213 nM,86.4 nM,"Cc1noc(C)c1C(=O)N1CCC(c2ccc(C(=O)NCc3ccn4ccnc4c3)cc2)CC1 [Example 525, 4-{1-[(3,5-dimethyl-1,2-oxazol-4-yl)carbonyl]piperidin-4-yl}-N-(imidazo[1,2-a]pyridin-7-ylmethyl)benzamide]"
60.3 nM,0.275 nM,126 nM,"COc1cccc(C(=O)N2CCC(c3ccc(C(=O)NCc4ccn5ccnc5c4)cc3)CC2)c1 [Example 526, N-(imidazo[1,2-a]pyridin-7-ylmethyl)-4-[1-(3-methoxybenzoyl)piperidin-4-yl]benzamide]"
59.8 nM,0.265 nM,141 nM,"O=C(NCc1ccn2ccnc2c1)c1ccc(C2CCN(C(=O)c3cccc(Cl)c3)CC2)cc1 [Example 527, 4-[1-(3-chlorobenzoyl)piperidin-4-yl]-N-(imidazo[1,2-a]pyridin-7-ylmethyl)benzamide]"
24 nM,0.276 nM,126 nM,"COc1ccc(C(=O)N2CCC(c3ccc(C(=O)NCc4ccn5ccnc5c4)cc3)CC2)cc1 [Example 528, N-(imidazo[1,2-a]pyridin-7-ylmethyl)-4-[1-(4-methoxybenzoyl)piperidin-4-yl]benzamide]"
227 nM,0.283 nM,248 nM,"O=C(NCc1ccn2ccnc2c1)c1ccc(C2CCN(C(=O)c3ccc(Cl)cc3)CC2)cc1 [Example 529, 4-[1-(4-chlorobenzoyl)piperidin-4-yl]-N-(imidazo[1,2-a]pyridin-7-ylmethyl)benzamide]"
82.1 nM,0.791 nM,378 nM,"O=C(NCc1ccn2ccnc2c1)c1ccc(C2CCN(C(=O)c3cc(F)cc(F)c3)CC2)cc1 [Example 530, 4-[1-(3,5-difluorobenzoyl)piperidin-4-yl]-N-(imidazo[1,2-a]pyridin-7-ylmethyl)benzamide]"
52.9 nM,0.253 nM,333 nM,"O=C(NCc1ccn2ccnc2c1)c1ccc(C2CCN(C(=O)C3CC3)CC2)cc1 [Example 531, 4-[1-(cyclopropylcarbonyl)piperidin-4-yl]-N-(imidazo[1,2-a]pyridin-7-ylmethyl)benzamide]"
92.7 nM,0.178 nM,338 nM,"CCC(=O)N1CCC(c2ccc(C(=O)NCc3ccn4ccnc4c3)cc2)CC1 [Example 532, N-(imidazo[1,2-a]pyridin-7-ylmethyl)-4-(1-propanoylpiperidin-4-yl)benzamide]"
17.4 nM,0.169 nM,101 nM,"Cn1cccc1C(=O)N1CCC(c2ccc(C(=O)NCc3ccn4ccnc4c3)cc2)CC1 [Example 533, N-(imidazo[1,2-a]pyridin-7-ylmethyl)-4-{1-[(1-methyl-1H-pyrrol-2-yl)carbonyl]piperidin-4-yl}benzamide]"
5.08 nM,0.251 nM,145 nM,"CC(C)CC(=O)N1CCC(c2ccc(C(=O)NCc3ccn4ccnc4c3)cc2)CC1 [Example 534, N-(imidazo[1,2-a]pyridin-7-ylmethyl)-4-[1-(3-methylbutanoyl)piperidin-4-yl]benzamide]"
